In US20260209692A1, “BASAL MEDIUM COMPOSITION FOR ANIMAL CELL CULTURE” (TableMark Co., Ltd., priority 2023, published 2026):

Tests used:
[1] = tested on: MDBK cells (established cell line); experiment: Culturability when L-cystine was replaced with L-cysteine, MDBK (Example 9); format: cell-based, bovine; conditions: end of third subculture, 0.072 g/L
Protocol: (§1) Cells used: MDBK cells (established cell line), RL34 cells (established cell line), duck liver-derived cells (primary cultured cells)
(§2) Amount of L-cysteine hydrochloride monohydrate added: Since L-cystine is a dimer of L-cysteine, L-cysteine hydrochloride monohydrate was added in an amount twice the number of moles of L-cystine.
(§3) MDBK cells and RL34 cells were each subcultured in a complete medium prepared by adding 1% PSA and 10% FBS to the above basal medium. Duck liver-derived cells were also subcultured in a complete medium prepared by adding 1% PSA and 10% serum to the above basal medium. In both cases, subculture was performed every 3 to 4 days, and subculture was performed up to the third time.

[2] = tested on: RL34 cells (established cell line); experiment: Culturability when L-cystine was replaced with L-cysteine, RL34 (Example 9); format: cell-based, rat; conditions: RL34, end of third subculture, 0.072 g/L
Protocol: as §1, §2, §3

[3] = tested on: duck liver-derived cells (primary cultured cells); experiment: Culturability when L-cystine was replaced with L-cysteine, duck liver-derived cells (Example 9); format: cell-based; conditions: end of third subculture, 0.072 g/L
Protocol: as §1, §2, §3

[4] = tested on: mouse-derived myoblast cell line C2C12; experiment: Cell culture test of amino acid conditions, C2C12 (Example 1); format: cell-based; conditions: C2C12, from condition 19 (1/8 amount) vs condition 20
Protocol: Of the constituents to be contained in Dulbecco's Modified Eagle Medium (DMEM), those excluding amino acids was dissolved in ion-exchanged water to prepare A.A.-IMEM Seven types of yeast extract ([…], and J) shown below were each further added to the A.A.-IMEM Buffer, so that the final concentration in the medium was 1 g/L. Various amino acids required for the proliferation of cultured cells in DMEM were added to “A.A.-IMEM Buffer+yeast extract” according to conditions 1 to 16 in Table 3, and a cell culture test was conducted. […] The amount of each amino acid added was the same as that contained in the formulation of DMEM. In addition, the same amino acid composition as that of DMEM was used as P.C. (positive control), while the same amino acid composition as that of DMEM but with 1⁄8th the amount added was used as condition 19, and that with 1/32nd the amount added was used as condition 20. All reagents used in the experiment were of food additive grade. 10% heat-inactivated fetal bovine serum (FBS) and 1% penicillin-streptomycin-amphotericin (PSA) were further added to A.A.-IMEM Buffer+yeast extract and the amino acids of each condition listed in Table 3, so as to conduct a cell culture test. For the cell culture test, mouse-derived myoblast cell line C2C12 was used. […]

Compound | difference in culturability due to replacement of L-cystine [1] | difference in culturability due to replacement of L-cystine [2] | difference in culturability due to replacement of L-cystine [3] | amount of amino acid required in the medium [4]
Cl.N[C@@H](CS)C(=O)O.O [L-cysteine hydrochloride monohydrate] | almost no difference in culturability | almost no difference in culturability | almost no difference in culturability | –
N[C@@H](CSSC[C@H](N)C(=O)O)C(=O)O [L-cystine] | – | – | – | at least 6.13 mg/L
NC(=O)CC[C@H](N)C(=O)O [L-glutamine] | – | – | – | ≥ 74.5 mg/L
